Legend:
[1] = target: T1, human VAP-1 enzyme (SSAO) (Homo sapiens, UniProt Q16853); assay: Enzyme activity inhibitory effect on human VAP-1 enzyme (SSAO), radiochemical-enzyme assay with 14C-benzylamine; type: biochemical; conditions: human VAP-1 (SSAO) cell extract, 14C-benzylamine 1×10^−5 mol/l, 37° C. 2 hours
T1 construct: made in house; cell extract used
T1 sequence (Q16853 1-763): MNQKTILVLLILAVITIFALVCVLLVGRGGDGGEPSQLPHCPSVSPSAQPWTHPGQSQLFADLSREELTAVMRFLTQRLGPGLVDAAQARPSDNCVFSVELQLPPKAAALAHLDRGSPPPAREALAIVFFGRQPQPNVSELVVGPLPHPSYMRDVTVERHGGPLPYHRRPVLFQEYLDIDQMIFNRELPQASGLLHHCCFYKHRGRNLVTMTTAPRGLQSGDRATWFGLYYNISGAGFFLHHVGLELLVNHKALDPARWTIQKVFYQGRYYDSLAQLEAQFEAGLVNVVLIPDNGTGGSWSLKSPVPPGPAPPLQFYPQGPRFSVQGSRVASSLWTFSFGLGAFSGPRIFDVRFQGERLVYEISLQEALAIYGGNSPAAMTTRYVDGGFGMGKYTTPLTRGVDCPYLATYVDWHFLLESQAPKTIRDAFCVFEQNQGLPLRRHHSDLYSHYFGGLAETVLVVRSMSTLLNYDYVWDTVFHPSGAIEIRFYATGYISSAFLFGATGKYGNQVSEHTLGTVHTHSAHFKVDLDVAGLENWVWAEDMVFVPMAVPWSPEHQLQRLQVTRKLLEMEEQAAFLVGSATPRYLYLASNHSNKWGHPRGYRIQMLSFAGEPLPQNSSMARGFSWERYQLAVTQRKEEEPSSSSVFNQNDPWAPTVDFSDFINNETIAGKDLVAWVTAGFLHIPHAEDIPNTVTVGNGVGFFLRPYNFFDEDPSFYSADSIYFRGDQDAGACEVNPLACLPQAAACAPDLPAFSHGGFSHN
Experimental: (§1) The compounds of the present invention obtained in Production Examples were examined for the enzyme activity inhibitory effect on human and rat VAP-1 enzyme (SSAO) by the following method.
(§2) The VAP-1 enzyme (SSAO) activity in both human and rat was measured by a radiochemical-enzyme assay using ^14C-benzylamine as an artificial substrate. Human or rat VAP-1 was cloned from the cDNA library and expressed in a cell. The cell extract was preincubated with a test compound solution (final concentration 1×10^−7-1×10^−11 mol/l) at room temperature for 20 minutes. Then, ^14C-benzylamine (final concentration 1×10^−5 mol/l) was added, and the mixture was incubated at a final volume of 200 μl at 37° C. for 2 hours. The enzyme reaction was stopped by addition of 2 mol/l (200 μl) citric acid. The oxidation product was extracted with 1 ml toluene/ethyl acetate (1:1), and the radioactivity thereof was measured by a liquid scintillation counter.

rat VAP-1 enzyme (SSAO) = target: T2, rat VAP-1 enzyme (SSAO) (Rattus norvegicus, UniProt O08590); assay: Enzyme activity inhibitory effect on rat VAP-1 enzyme (SSAO), radiochemical-enzyme assay with 14C-benzylamine; type: biochemical; conditions: rat VAP-1 (SSAO) cell extract, 14C-benzylamine 1×10^−5 mol/l, 37° C. 2 hours
T2 construct: made in house; cell extract used
T2 sequence (O08590 1-763): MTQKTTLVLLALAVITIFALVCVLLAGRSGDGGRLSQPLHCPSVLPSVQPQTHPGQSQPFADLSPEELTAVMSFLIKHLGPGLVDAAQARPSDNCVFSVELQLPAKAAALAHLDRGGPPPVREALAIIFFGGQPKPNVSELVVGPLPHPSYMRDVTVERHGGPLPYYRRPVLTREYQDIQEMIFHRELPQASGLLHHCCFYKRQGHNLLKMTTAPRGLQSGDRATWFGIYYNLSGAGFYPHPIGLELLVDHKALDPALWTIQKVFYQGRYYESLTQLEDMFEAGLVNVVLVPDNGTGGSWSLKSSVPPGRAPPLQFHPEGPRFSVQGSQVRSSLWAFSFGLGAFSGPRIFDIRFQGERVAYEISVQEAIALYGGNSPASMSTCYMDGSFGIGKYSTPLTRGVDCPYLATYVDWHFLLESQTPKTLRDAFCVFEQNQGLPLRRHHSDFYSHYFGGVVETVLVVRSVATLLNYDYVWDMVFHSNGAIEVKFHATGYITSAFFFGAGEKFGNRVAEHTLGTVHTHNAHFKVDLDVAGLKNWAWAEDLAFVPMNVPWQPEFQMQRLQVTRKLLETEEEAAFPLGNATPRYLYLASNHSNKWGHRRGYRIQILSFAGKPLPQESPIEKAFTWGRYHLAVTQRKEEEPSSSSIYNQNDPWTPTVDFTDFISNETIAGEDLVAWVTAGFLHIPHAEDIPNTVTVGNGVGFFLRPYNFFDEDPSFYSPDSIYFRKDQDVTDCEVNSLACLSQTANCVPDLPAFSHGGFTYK
Experimental: as §1, §2

| Structure (SMILES) | melting point [°C] | IC50 [1] [nM] | IC50 (rat VAP-1 enzyme (SSAO)) [nM] |
| --- | --- | --- | --- |
| CC(=O)Nc1nc(CCc2ccc(CSC(=O)NN)cc2)cs1.Cl [Production Example 34, S-(4-{2-[2-(acetylamino)-1,3-thiazol-4-yl]ethyl}benzyl) hydrazinecarbothioate hydrochloride] | 149 to 158 | 23.2 | 4.6 |
| CC(=O)Nc1nc(COc2ccc(CCOC(=O)NN)cc2)cs1 [Production Example 7, 2-(4-{[2-(acetylamino)-1,3-thiazol-4-yl]methoxy}phenyl)ethyl hydrazinecarboxylate] | 177 to 180 | 57 | 7.1 |
| CC(=O)Nc1nc(CCc2ccc(COC(=O)NN)cc2)cs1.Cl [Production Example 2, 4-{2-[2-(acetylamino)-1,3-thiazol-4-yl]ethyl}benzyl hydrazinecarboxylate hydrochloride] | 162 to 164 | 0.9 | 0.7 |
| CC(=O)Nc1nc(CCc2ccc(CNC(=O)NN)s2)cs1.Cl [Production Example 29, N-[2-(5-{2-[2-(acetylamino)-1,3-thiazol-4-yl]ethyl}thiophen-2-yl)methyl]hydrazinecarboxamide hydrochloride] | 158 to 161 | 1.8 | 0.6 |
| CC(=O)Nc1nc(CCc2ccc(COC(=O)NN)c(F)c2)cs1.Cl [Production Example 4, 4-{2-[2-(acetylamino)-1,3-thiazol-4-yl]ethyl}-2-fluorobenzyl hydrazinecarboxylate hydrochloride] | 162 to 165 | 0.8 | 0.4 |
| CC(=O)Nc1nc(CCc2cccc(COC(=O)NN)c2)cs1.Cl [Production Example 11, 3-{2-[2-(acetylamino)-1,3-thiazol-4-yl]ethyl}benzyl hydrazinecarboxylate hydrochloride] | 113 to 119 | 1.3 | 0.2 |
| CC(=O)Nc1nc(C(=O)Oc2ccc(CCOC(=O)NN)cc2)cs1.Cl [Production Example 8, 4-{2-[(hydrazinocarbonyl)oxy]ethyl}phenyl 2-(acetylamino)-1,3-thiazole-4-carboxylate hydrochloride] | 179 to 184 | 6.4 | 1.7 |
| CC(=O)Nc1nc(CCc2cc(C)c(CCCNC(=O)NN)s2)cs1.Cl [Production Example 33, N-[3-(5-{2-[2-(acetylamino)-1,3-thiazol-4-yl]ethyl}-3-methylthiophen-2-yl)propyl]hydrazinecarboxamide hydrochloride] | 152 to 157 | 108 | 2.1 |
| CC(=O)Nc1nc(CCc2cccc(CCOC(=O)NN)c2)cs1.Cl [Production Example 12, 2-(3-{2-[2-(acetylamino)-1,3-thiazol-4-yl]ethyl}phenyl)ethyl hydrazinecarboxylate hydrochloride] | 138 to 140 | 3.2 | 0.5 |
| CC(=O)Nc1nc(CCc2ccc(COC(=O)NN)cc2F)cs1.Cl [Production Example 5, 4-{2-[2-(acetylamino)-1,3-thiazol-4-yl]ethyl}-3-fluorobenzyl hydrazinecarboxylate hydrochloride] | 204 to 208 | 1.2 | 1.1 |
| CC(=O)Nc1nc(CCc2csc(CCCOC(=O)NN)c2)cs1.Cl [Production Example 15, 3-(4-{2-[2-(acetylamino)-1,3-thiazol-4-yl]ethyl}thiophen-2-yl)propyl hydrazinecarboxylate hydrochloride] | 150 to 153 | 13.4 | 0.6 |
| CC(=O)Nc1nc(C(=O)Oc2ccc(CCNC(=O)NN)cc2)cs1.Cl [Production Example 26, 4-{2-[(hydrazinocarbonyl)amino]ethyl}phenyl 2-(acetylamino)-1,3-thiazole-4-carboxylate hydrochloride] | 204 to 207 | 13.3 | 3.3 |
| CC(=O)Nc1nc(CCc2ccc(CNC(=O)NN)cc2)cs1.Cl [Production Example 18, N-(4-{2-[2-(acetylamino)-1,3-thiazol-4-yl]ethyl}benzyl)hydrazinecarboxamide hydrochloride] | 167 to 169 | 4 | 1.3 |
